Data on two molecules can be found in patent US4861788A, “Antibacterial 1-normon-2-yl-heterocyclic compounds” (Beecham Group plc, priority 1983, dated 1989).

In brackets after ≈: the same amount, converted by molar mass.

In one assay the test system is M. hyopneumoniae NB12. The assay is described as follows: MIC against Mycoplasma in vitro (Friis broth with agarose). In kind it is cell-based. Conditions: Mesomycoplasma hyopneumoniae, 144 h; M. hyopneumoniae NB12; 6 days at 37° C; read-out: MIC.
Another assay has as its system M. hyopneumoniae LABER. The assay is described as above. In kind it is cell-based. Conditions: Mesomycoplasma hyopneumoniae, 144 h; M. hyopneumoniae LABER; 6 days at 37° C; read-out: MIC.
The next assay deals with M. hyopneumoniae HK (2). The assay is described as above. In kind it is cell-based. Conditions: Mesomycoplasma hyopneumoniae, 144 h; M. hyopneumoniae HK (2); 6 days at 37° C; read-out: MIC.
Assay [1] has as its system M. hyopneumoniae NCTC 101101. The description is as above. Conditions: Mesomycoplasma hyopneumoniae, NCTC101101, 144 h; M. hyopneumoniae NCTC 101101; 6 days at 37° C; read-out: MIC. In kind it is cell-based.
Assay [2] relates to M. hyopneumoniae J2206/183^b. Described as above. In kind it is cell-based. Conditions: Mesomycoplasma hyopneumoniae, 144 h; M. hyopneumoniae J2206/183^b; 6 days at 37° C; read-out: MIC.
The test system of assay [3] is Haemophilus influenzae Wy21. The assay is described as follows: MIC against human bacteria in vitro (nutrient agar, chocolated horse blood). In kind it is cell-based. Conditions: human; Haemophilus influenzae Wy21; 18 hours at 37° C; read-out: MIC. The method, then:
(§1) The activity of the normonyl derivaties of the Examples against various bacteria which are important in diseases of humans, was assayed in vitro using serial dilutions in nurient agar with 5% chocolated horse blood.

A further assay has as its system E. coli ESS. The assay is described as above. In kind it is cell-based. Conditions: Escherichia coli; human; E. coli ESS; 18 hours at 37° C; read-out: MIC. As to the method:
as §1

For the next assay, the system named is Staph. aureus Oxford. The description is as above. Conditions: Staphylococcus aureus; human; Staph. aureus Oxford; 18 hours at 37° C; read-out: MIC. In kind it is cell-based. The method, then:
as §1

In assay [4] the test system is Pasteurella multocida 1633. The description is as above. In kind it is cell-based. Conditions: human; Pasteurella multocida 1633; 18 hours at 37° C; read-out: MIC. The method, then:
as §1

For assay [5], the system named is Strep. pyogenes R80/421-A. Described as above. In kind it is cell-based. Conditions: Streptococcus pyogenes; human; Strep. pyogenes R80/421-A; 18 hours at 37° C; read-out: MIC. The method, then:
as §1

A further assay concerns E. coli NCTC 10418. The assay is described as above. In kind it is cell-based. Conditions: Escherichia coli, NCTC10418; human; E. coli NCTC 10418; 18 hours at 37° C; read-out: MIC. The method, then:
as §1

For a further assay, the system named is Sarcina lutea 8340. The assay is described as above. Conditions: Micrococcus luteus; human; Sarcina lutea 8340; 18 hours at 37° C; read-out: MIC. In kind it is cell-based. As to the method:
as §1

The test system of a further assay is Staph. aureus Russell. Described as above. In kind it is cell-based. Conditions: Staphylococcus aureus; human; Staph. aureus Russell; 18 hours at 37° C; read-out: MIC. The method, then: as §1
Another assay concerns Bacillus subtilis 6633. Described as above. In kind it is cell-based. Conditions: human; Bacillus subtilis 6633; 18 hours at 37° C; read-out: MIC. The method, then: as §1
The next assay deals with Staph. aureus W2827. Described as above. In kind it is cell-based. Conditions: Staphylococcus aureus; human; Staph. aureus W2827; 18 hours at 37° C; read-out: MIC. The method, then:
as §1

The test system of the next assay is Strep. faecalis I. The description is as above. In kind it is cell-based. Conditions: Enterococcus faecalis; human; Strep. faecalis I; 18 hours at 37° C; read-out: MIC. The method, then: as §1
The subject of assay [6] is Ps. aeruginosa NCTC 10662. Described as above. Conditions: Pseudomonas aeruginosa, NCTC10662; human; Ps. aeruginosa NCTC 10662; 18 hours at 37° C; read-out: MIC. In kind it is cell-based. As to the method: as §1
The test system of assay [7] is Corynebacterium xerosis 9755. The assay is described as above. In kind it is cell-based. Conditions: human; Corynebacterium xerosis 9755; 18 hours at 37° C; read-out: MIC. The method, then: as §1
In the next assay the test system is Strep. spp. 64/848-C. The description is as above. Conditions: human; Strep. spp. 64/848-C; 18 hours at 37° C; read-out: MIC. In kind it is cell-based. The method, then: as §1
In a further assay the test system is Strep. agalactiae 2788-B. Described as above. In kind it is cell-based. Conditions: Streptococcus agalactiae; human; Strep. agalactiae 2788-B; 18 hours at 37° C; read-out: MIC. As to the method: as §1
The test system of another assay is K. aerogenes A. Described as above. Conditions: Klebsiella aerogenes; human; K. aerogenes A; 18 hours at 37° C; read-out: MIC. In kind it is cell-based. As to the method: as §1
In the next assay the test system is P. mirabilis 889. Described as above. Conditions: Proteus mirabilis; human; P. mirabilis 889; 18 hours at 37° C; read-out: MIC. In kind it is cell-based. As to the method:
as §1

Assay [8] has as its system M. hyopneumoniae PW/C/210. Nature of the assay: MIC against Mycoplasma in vitro (Friis broth with agarose). Conditions: Mesomycoplasma hyopneumoniae, 144 h; M. hyopneumoniae PW/C/210; 6 days at 37° C; read-out: MIC. In kind it is cell-based.
The next assay deals with Strep. dysgalactiae SPD1. The assay is described as follows: MIC against veterinary bacteria in vitro (Diagnostic Sensitivity Test Agar). Conditions: Streptococcus dysgalactiae, SPD1, 18 h.
The next assay concerns M. hyopneumoniae Str. 11. The assay is described as follows: MIC against Mycoplasma in vitro (Friis broth with agarose). In kind it is cell-based. Conditions: Mesomycoplasma hyopneumoniae, 144 h; M. hyopneumoniae Str. 11; 6 days at 37° C; read-out: MIC.
The test system of another assay is B. subtilis ATCC 6633. The assay is described as follows: MIC against veterinary bacteria in vitro (Diagnostic Sensitivity Test Agar). Conditions: Bacillus subtilis, ATCC6633, 18 h.
Assay [9] has as its system Neisseria catarrhalis 1502. The assay is described as follows: MIC against human bacteria in vitro (nutrient agar, chocolated horse blood). In kind it is cell-based. Conditions: human; Neisseria catarrhalis 1502; 18 hours at 37° C; read-out: MIC. As to the method:
as §1

Procedure for B. subtilis ATCC 6633: (§2) The activity of the normonyl derivatives of the Examples against various veterinarily important bacteria, was assayed in vitro using two-fold serial dilutions in Diagnostic Sensitivity Test Agar inoculated with 10^4 organisms.
Procedure for Strep. dysgalactiae SPD1: as §2

Take `CC(=Cc1nnc(-c2ccc(S(C)(=O)=O)cc2)o1)CC1OCC(CC2OC2C(C)C(C)O)C(O)C1O` (stereo not drawn) [Example 4, 2-p-Methylsulphonylphenyl-5-(1-normon-2-yl)-1,3,4-oxadiazole A]: the MIC with M. hyopneumoniae NB12 worked out at 0.25 µg/mL (≈ 0.478 µM); with M. hyopneumoniae LABER, 0.25 µg/mL (≈ 0.478 µM); in the assay with M. hyopneumoniae HK (2) it was 0.25 µg/mL (≈ 0.478 µM); in [1], 0.5 µg/mL (≈ 0.957 µM); in assay [2], 0.5 µg/mL (≈ 0.957 µM); in [3], 1 µg/mL (≈ 1.91 µM). For the same molecule, the MIC in the assay on E. coli ESS was 4 µg/mL (≈ 7.65 µM); in the assay with Staph. aureus Oxford, 8 µg/mL (≈ 15.3 µM); in assay [4] it was 4 µg/mL (≈ 7.65 µM); in assay [5], 16 µg/mL (≈ 30.6 µM); in the assay on E. coli NCTC 10418, greater than 64 µg/mL; with Sarcina lutea 8340 it was greater than 64 µg/mL. Further, the MIC with Staph. aureus Russell is 32 µg/mL (≈ 61.2 µM); in the assay with Bacillus subtilis 6633, 16 µg/mL (≈ 30.6 µM); with Staph. aureus W2827 it was 32 µg/mL (≈ 61.2 µM); in the assay with Strep. faecalis I, greater than 64 µg/mL; in assay [6], greater than 64 µg/mL; in [7], greater than 64 µg/mL. Besides, the MIC in the assay on Strep. spp. 64/848-C was 16 µg/mL (≈ 30.6 µM); with Strep. agalactiae 2788-B, 16 µg/mL (≈ 30.6 µM); in the assay with K. aerogenes A, greater than 64 µg/mL; in the assay with P. mirabilis 889, greater than 64 µg/mL; in assay [8], 0.1 µg/mL (≈ 0.191 µM); against Strep. dysgalactiae SPD1, 10 µg/mL (≈ 19.1 µM). In addition, the MIC with M. hyopneumoniae Str. 11 stood at 0.25 µg/mL (≈ 0.478 µM); with B. subtilis ATCC 6633, 5 µg/mL (≈ 9.57 µM).

For the molecule `CC(=Cc1nnc(-c2ccco2)o1)CC1OCC(CC2OC2C(C)C(C)O)C(O)C1O` (stereo not drawn) [Example 8, 2-(2-Furyl)-5-(1-normon-2-yl)-1,3,4-oxadiazole A], the MIC in the assay on M. hyopneumoniae HK (2) is 10 µg/mL (≈ 23 µM); in assay [1], 10 µg/mL (≈ 23 µM); in [2], 10 µg/mL (≈ 23 µM); in assay [3], 0.25 µg/mL (≈ 0.575 µM); in the assay with E. coli ESS, 8 µg/mL (≈ 18.4 µM); in the assay on Staph. aureus Oxford, 4 µg/mL (≈ 9.21 µM). In addition, the MIC in assay [4] is 1 µg/mL (≈ 2.3 µM); with E. coli NCTC 10418, greater than 128 µg/mL; in the assay with Sarcina lutea 8340, greater than 128 µg/mL; in the assay with Staph. aureus Russell, 64 µg/mL (≈ 147 µM); in the assay on Bacillus subtilis 6633, 4 µg/mL (≈ 9.21 µM); in the assay on Staph. aureus W2827 it was 32 µg/mL (≈ 73.6 µM). Besides, the MIC in the assay with Strep. faecalis I is greater than 128 µg/mL; in assay [6], greater than 128 µg/mL; with Strep. spp. 64/848-C, 32 µg/mL (≈ 73.6 µM); with Strep. agalactiae 2788-B, 32 µg/mL (≈ 73.6 µM); in the assay with K. aerogenes A it was greater than 128 µg/mL; with P. mirabilis 889, greater than 128 µg/mL. Besides, the MIC in [9] came to 0.5 µg/mL (≈ 1.15 µM); with Strep. dysgalactiae SPD1, 40 µg/mL (≈ 92.1 µM); with M. hyopneumoniae Str. 11, 5 µg/mL (≈ 11.5 µM); in the assay with B. subtilis ATCC 6633, 10 µg/mL (≈ 23 µM).
